# In patent EP0308189B1, “Skin cleansing toilet bar with low moisture content” (THE PROCTER & GAMBLE COMPANY, priority 1987, dated 1989):
# System: skin epidermis
substance,measurement,value
Cocoyl Isethionate,Relative Skin Barrier Penetration Value,40
same,Total mg Water Penetrating the Skin in 24 Hours,60.3 ± 17.7 mg
